Laboratory results taken from ChEMBL document CHEMBL1134031, “Dimeric L-dopa derivatives as potential prodrugs” (Bioorg Med Chem Lett, 2001).
Several values for one entry are separate records, joined by “and”; a condition that tells them apart may be missing. Equal values may be shown once.

Legend:
[1] = physchem; conditions: pH 1.3
Description: Half life period at a pH 1.3 was determined

[2] = species on record: Rattus norvegicus
Description: Observed rate constant in 80% rat plasma at 37 degree Centigrade

[3] = physchem; conditions: octanol/phosphate buffer, pH 7.4
Description: Partition coefficient value in octanol and phosphate buffer (log P) at pH of 7.4 was determined.

[4] = human, plasma
Description: (§1) Observed rate constant in 80% human plasma at 37 degree Centigrade

[5] = human, plasma; remark: listed apart in the source
Description: as §1

[6] = pH 7.4
Description: Observed rate constant at a pH of 7.4

[7] = human, plasma; remark: listed apart in the source
Description: (§2) Half life period in 80% human plasma at 37 degree Centigrade

[8] = pH 1.3
Description: Observed rate constant at a pH of 1.3

[9] = physchem; conditions: dog, in vivo, pH 7.4
Description: Half life period at a pH 7.4 was determined

[10] = in vitro; conditions: rat, 80% rat plasma
Description: Half life period in 80% rat plasma at 37 degree Centigrade

[11] = in vitro; conditions: human, 80% human plasma, T1/2
Description: as §2

| half-life [1] | K obs [2] | logD [3] | k1 obs [4] | k2 obs [5] | K obs [6] | T1/2 [7] | K obs [8] | half-life [9] | half-life [10] | half-life [11] | Structure (SMILES) |
| --- | --- | --- | --- | --- | --- | --- | --- | --- | --- | --- | --- |
| 16.5 h | 0.028 min⁻¹ | 1.04 | 0.0068 min⁻¹ | 0.0025 min⁻¹ | 0.049 h⁻¹ | 1.698 h and 4.62 h | 0.042 h⁻¹ | 14.2 h | 0.407 h | – | COC(=O)[C@H](Cc1ccc(OC(C)=O)c(OC(C)=O)c1)NC(=O)N[C@@H](Cc1ccc(OC(C)=O)c(OC(C)=O)c1)C(=O)OC |
| 48.8 h | 0.17 min⁻¹ | 0.92 | 0.081 min⁻¹ | 0.01 min⁻¹ | 0.04 h⁻¹ | – | 0.014 h⁻¹ | 17.3 h | 0.0683 h | – | COC(=O)[C@H](Cc1ccc(OC(C)=O)c(OC(C)=O)c1)NC(=O)CCCCC(=O)N[C@@H](Cc1ccc(OC(C)=O)c(OC(C)=O)c1)C(=O)OC |

Further lines, the compound ahead of its results:

| Structure (SMILES) | half-life [1] | K obs [2] | logD [3] | k1 obs [4] | k2 obs [5] | K obs [6] | T1/2 [7] | K obs [8] | half-life [9] | half-life [10] | half-life [11] |
| --- | --- | --- | --- | --- | --- | --- | --- | --- | --- | --- | --- |
| COC(=O)[C@H](Cc1ccc(OC(C)=O)c(OC(C)=O)c1)NC(=O)C(=O)N[C@@H](Cc1ccc(OC(C)=O)c(OC(C)=O)c1)C(=O)OC | 20 h | 0.11 min⁻¹ | 0.73 | 0.0083 min⁻¹ | 0.0045 min⁻¹ | 0.049 h⁻¹ | 2.547 h | 0.032 h⁻¹ | 14.2 h | 0.102 h | 1.38 h |
| COC(=O)[C@H](Cc1ccc(OC(C)=O)c(OC(C)=O)c1)NC(=O)CCCC(=O)N[C@@H](Cc1ccc(OC(C)=O)c(OC(C)=O)c1)C(=O)OC | 68.1 h | 0.24 min⁻¹ | 0.87 | 0.011 min⁻¹ | 0.0045 min⁻¹ | 0.05 h⁻¹ | 1.05 h and 2.57 h | 0.01 h⁻¹ | 13.9 h | 0.0483 h | – |
| COC(=O)[C@H](Cc1ccc(OC(C)=O)c(OC(C)=O)c1)NC(=O)CCC(=O)N[C@@H](Cc1ccc(OC(C)=O)c(OC(C)=O)c1)C(=O)OC | 55.4 h | 0.34 min⁻¹ | 0.85 | 0.052 min⁻¹ | 0.0086 min⁻¹ | 0.043 h⁻¹ | – | 0.13 h⁻¹ | 16.2 h | 0.0333 h | – |
